The record followed here is US20120244619A1, “COMPOSITION FOR PROMOTING DIFFERENTIATION OF PLURIPOTENT STEM CELLS INTO CARDIAC MUSCLE CELLS WHICH COMPRISES NITROVIN” (KYOTO UNIVERSITY, priority 2009, published 2012).

What all share (format): cell-based
Experiment [1] relates to CMK 6.4 cynomolgus monkey ES cells. The experiment in a line: Comparison of nitrovin and cytokines in cardiac muscle cell differentiation of monkey ES cells. The settings on record: nitrovin 5 μM day 6-14; cytokines (bFGF, BMP4, VEGF, DKK1, Activin A) day 1-14; read at day 18. From the text:
Nitrovin and a mixture of cytokines (bFGF, BMP4, VEGF, DKK1, and Activin A) known as a promoter of cardiac muscle cell differentiation were compared as to increase of GFP fluorescence intensity, number of beating colonies of cardiac muscle cells, and expression of Troponin T, a marker of cardiac muscle cell differentiation.
As described in Example 1, a vector expressing green fluorescent protein (GFP) was introduced into monkey ES cell line (CMK 6.4 cynomolgus monkey ES cells). The culture medium was the same as described in Example 1. The monkey ES cells were seeded on 6-well culture plates and nitrovin (final concentration: 5 μM) or a mixture of cytokines (bFGF, BMP4, VEGF, DKK1, and Activin A) (final concentration: 5 ng/ml, 10 ng/ml, 10 ng/ml, 150 ng/ml, and 3 ng/ml, respectively) was added during day 6-14 of culture (nitrovin) or day 1-14 of culture (cytokines).

Experiment [2] has the same test system. The experiment in a line: Screening of agents which promote cardiac muscle cell differentiation of monkey ES cells (α-MHC promoter-GFP, HCS). The settings on record: 96-well, about 1-5 μM compound/well added day 6-14, read at day 14 of culture. How it is done:
As described in FIG. 1, screening of agents which promote cardiac muscle cell differentiation of monkey ES cells was performed. A vector expressing green fluorescent protein (GFP) under control of a promoter of a-MHC gene, a marker of cardiac muscle cell differentiation, was introduced into monkey ES cell line (CMK 6.4 cynomolgus monkey ES cells) and the cells were seeded on 96-well culture plates (Greiner/655090: 96 well FIA black plate) in 5.0×10^2 cells/well, and cultured for 14 days in a differentiation medium for cardiac muscle cell differentiation (200 ml IMDM (Sigma 13390) containing 50 ml bovine fetal serum (GIBCO 10099-141), 2.5 ml MEM non-essential amino acid solution (Sigma M7145), 2.5 ml penicillin-streptomycin (GIBCO 15140), 2.5 ml 200 mM L-glutamine, 2 μl 2-mercaptoethanol (Sigma M7522), 255 μl 5N NaOH 255 μl). During day 6-14 of culture, 9,600 library compounds were added into separate wells (about 1-5 μM compound/well). Then, at day 14 of culture, GFP expression was determined by using HCS (high contents screening) system (Molecular device/MetaMorph imaging system). As a result, GFP fluorescence intensity was high in the wells added with nitrovin (FIG. 2).

The subject of experiment [3] is human ES cell line (Kh−1). The experiment in a line: Effect of nitrovin for promoting cardiac muscle cell differentiation of human ES cells. The settings on record: nitrovin 1, 5 or 20 μM added at day 6, read at day 18. The procedure: As described in Example 1, a vector expressing green fluorescent protein (GFP) was introduced into human ES cell line (Kh−1). The human ES cells were seeded and cultured on 6-well culture plates (Asahi Glass/5816-006: Ezview culture plate) in 1.2×10^6 cells/well. The culture medium was the same as described in Example 1. At day 6 of culture, nitrovin was added at a final concentration of 1 μM, 5 μM, or 20 μM. At day 18 of culture, fluorescence intensity of GFP was determined.

Experiment [4] has as its system CMK 6.4 cynomolgus monkey ES cells. The experiment in a line: Effect of nitrovin for promoting cardiac muscle cell differentiation of monkey ES cells. The procedure: As described in Example 1, a vector expressing green fluorescent protein (GFP) was introduced into monkey ES cell line (CMK 6.4 cynomolgus monkey ES cells). The monkey ES cells were seeded and cultured on 6-well culture plates (Asahi Glass/5816-006: Ezview culture plate) in 4.0×10^6 cells/well. The culture medium was the same as described in Example 1. At day 6 of culture, nitrovin was added at a final concentration of 1 μM, 5 μM, or 20 μM. At day 18 of culture, fluorescence intensity of GFP and number of beating colonies of cardiac muscle cells were determined. When nitrovin was added, the fluorescence intensity and number of beating colonies increased up to about 5 times and about 10 times higher, respectively (FIGS. 3-1 and 3-2).

The mark [5] stands for this setting: nitrovin 1, 5 or 20 μM added at day 6, read at day 18, maximal increase vs control (DMSO).

Consider `N=C(N)NN=C(/C=C/c1ccc([N+](=O)[O-])o1)/C=C/c1ccc([N+](=O)[O-])o1` [nitrovin], for which, in experiment [1], the “GFP fluorescence intensity compared to the mixture of cytokines” value is recorded as “highly effective”, the “expression level of Troponin T compared to the mixture of cytokines” value is reported as “highly effective” and the “number of beating colonies compared to the mixture of cytokines” value is given as “highly effective”. Besides, the “GFP fluorescence intensity (GFP expression under α-MHC promoter)” value in experiment [2] is “high”. In addition, the GFP fluorescence intensity entry in experiment [3] was “increase of GFP fluorescence intensity induced by nitrovin was also observed”. For the same molecule, the “most effective final concentration” value in experiment [4] (among 1, 5 and 20 μM, GFP fluorescence intensity and beating colonies at day 18) worked out at 5 µM. In addition, in experiment [4] (setting [5]), the “increase of GFP fluorescence intensity” value was “about 5 times” and the “increase of number of beating colonies of cardiac muscle cells” value is “about 10 times”.
